Test results as given in a compilation of properties of binary mixtures (doi:10.1007/s10953-017-0695-7).

Assay: xn = mol fraction of the nth substance listed
Settings: 101 kPa

CCCCCO + CCCCCC[n+]1ccn(C)c1.[Cl-]
x1 = 1
Settings | viscosity [mPa·s]
293.15 K | 3.99
313.15 K | 2.29
323.15 K | 1.79
333.15 K | 1.39

CCCCCC[n+]1ccn(C)c1.[Cl-] + CCCCCO
viscosity [mPa·s]
Settings | 293.15 K | 303.15 K | 313.15 K | 323.15 K | 333.15 K
x1 = 0.0042 | 4.14 | – | – | 1.85 | 1.46
x1 = 0.0088 | – | 3.23 | 2.49 | 1.92 | 1.54
x1 = 0.0166 | 4.56 | – | 2.62 | 2.03 | 1.61
x2 = 0 | 11400 | 4206 | 1718 | – | 398
x2 = 0.1514 | 3550 | – | 803 | 418 | 192.5
x2 = 0.2971 | 1014 | 491 | – | 148.2 | 91
x2 = 0.5018 | 182.4 | 108.3 | 68.1 | 44.92 | 31.33
x2 = 0.6066 | 75.1 | 48.8 | 32.87 | 23.14 | 16.9
x2 = 0.7018 | 31.71 | 22.14 | 16.01 | 11.88 | –
x2 = 0.8012 | 14.74 | 10.86 | – | – | 4.99
x2 = 0.849 | – | 7.85 | 6.03 | 4.68 | 3.76
x2 = 0.8825 | 8.5 | 6.37 | 4.92 | 3.87 | 3.06
x2 = 0.9494 | 5.73 | 4.29 | 3.28 | 2.56 | 2.02
x2 = 0.9749 | 4.83 | 3.63 | 2.81 | 2.17 | 1.71

OCCO + CCCCCC[n+]1ccn(C)c1.[Cl-]
x1 = 1
Settings | viscosity [mPa·s]
293.15 K | 21.35
303.15 K | 14.1
313.15 K | 9.74
323.15 K | 7.02
333.15 K | 5.2

CCCCCC[n+]1ccn(C)c1.[Cl-] + OCCO
viscosity [mPa·s]
Settings | 293.15 K | 303.15 K | 313.15 K | 323.15 K | 333.15 K
x1 = 0.003 | – | 14.18 | 9.77 | 7.07 | 5.21
x1 = 0.0061 | 21.52 | 14.23 | 9.86 | – | –
x1 = 0.0124 | 21.64 | 14.24 | 9.94 | 7.17 | 5.33
x1 = 0.0188 | 21.81 | – | – | 7.24 | 5.4
x2 = 0 | 11400 | – | 1718 | – | 398
x2 = 0.1526 | 3449 | 861 | 629 | 326 | –
x2 = 0.3167 | 774 | 385 | 214.7 | 127.1 | 79.6
x2 = 0.3999 | 387 | 210.7 | 124.2 | 77.3 | 51.2
x2 = 0.4977 | – | 102.8 | 65.1 | 42.5 | –
x2 = 0.6002 | – | 53 | 35.51 | – | 18.06
x2 = 0.6987 | 46.8 | 30.76 | – | – | –
x2 = 0.8026 | 29.46 | 19.81 | 13.95 | 10.18 | 7.71
x2 = 0.8897 | 24.2 | 16.2 | – | 8.37 | 6.32
x2 = 0.8998 | 23.77 | 16.02 | 11.25 | – | 6.18
x2 = 0.9152 | 23.12 | 15.52 | 10.98 | 7.98 | 6
x2 = 0.931 | 22.64 | 15.24 | 10.67 | 7.73 | 5.82
x2 = 0.9532 | 22.13 | 14.78 | 10.37 | 7.51 | –
x2 = 0.9642 | 22.02 | 14.71 | – | – | 5.53
x2 = 0.9761 | 21.83 | 14.45 | – | 7.27 | 5.46
